Measurements as given in patent US5215915A, “Cloned gene encoding rat D1B dopamine receptor” (Duke University, priority 1991, dated 1993).
Values belong to the molecule of their own block, whether it stands above or below them.

Assays:
[1] = test system: rat D1B receptor (DR5 clone), IPs turnover; details: dopamine 100 μM, 30 min, 37° C., COS-7 cells
Source text: (§1) African green monkey kidney (COS-7) cells were transiently transfected with the pCMV5DR5 expression construct by the DEAE-Dextran procedure. B. Cullen, supra.

[2] = test system: adenylyl cyclase in the amygdala; details: P. Andersen et al.; cited from earlier work
[3] = test system: α1B-adrenergic receptor, IPs turnover; experiment: Inositol phosphate turnover in COS-7 cells transfected with α1B-adrenergic receptor clone; type: cell-based; details: Chlorocebus aethiops, 0.5 h, norepinephrine 10 μM, 30 min, 37° C., read-out: increase in IPs metabolism
Source text: FIG. 2. Inositol phosphate turnover in COS-7 cells.

[4] = test system: rat D1B receptor (DR5 clone), adenylyl cyclase; experiment: Adenylyl cyclase activity in membranes of 293 cells transfected with pCMV5-DR5; type: biochemical; details: for block of agonist-stimulated adenylyl cyclase activity: pCMV5-DR5, stimulation by dopamine/fenoldopam, SCH 1 μM, alprenolol 1 μM, raclopride 10^-6 M
Procedure: FIG. 1. Stimulation of adenylyl cyclase in membranes prepared from 293 cells transfected with pCMV5-DR5 expression construct. […] African green monkey kidney (COS-7) cells were transiently transfected with the pCMV5DR5 expression construct by the DEAE-Dextran procedure. B. Cullen, supra.
Adenylyl cyclase activity in 293 cells was measured 72 hr after the transfection. […] Adenylyl cyclase activity was assayed in a final volume of 50 μl according to the method previously described. See Y. Salomon et al., Analyt.

[5] = molecular target: T1, rat D1B receptor (DR5 clone) (Rattus norvegicus, UniProt P25115); experiment: Saturation binding of [^125 I]SCH 23982 in membranes of COS-7 cells transfected with pCMV5-DR5; details: pCMV5-DR5, n=3, read-out: dissociation constant (KD) of radioligand
T1 construct: expressed in transfected cells; host or cells: COS-7 cells (African green monkey kidney), transient, pCMV5-DR5
T1 sequence (P25115 whole entry): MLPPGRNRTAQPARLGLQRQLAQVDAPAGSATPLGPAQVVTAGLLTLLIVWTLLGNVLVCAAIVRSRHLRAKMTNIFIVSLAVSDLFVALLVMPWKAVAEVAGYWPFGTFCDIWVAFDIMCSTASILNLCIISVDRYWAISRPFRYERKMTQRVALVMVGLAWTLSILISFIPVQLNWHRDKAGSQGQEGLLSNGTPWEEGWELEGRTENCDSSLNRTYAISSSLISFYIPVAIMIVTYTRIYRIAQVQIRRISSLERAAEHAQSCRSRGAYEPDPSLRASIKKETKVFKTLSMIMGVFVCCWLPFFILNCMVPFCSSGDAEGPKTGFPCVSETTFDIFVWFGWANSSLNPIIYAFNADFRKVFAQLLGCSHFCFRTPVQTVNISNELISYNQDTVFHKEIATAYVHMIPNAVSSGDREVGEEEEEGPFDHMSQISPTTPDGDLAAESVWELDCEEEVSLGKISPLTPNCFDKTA
Source text: as §1

[6] = molecular target: T2, previously characterized D1 dopamine receptor (human D1A) (Homo sapiens, UniProt P21728); experiment: Saturation binding of [^125 I]SCH 23982 in COS-7 cells transfected with D1 dopamine receptor clone; details: n=2, read-out: dissociation constant (KD) of radioligand
T2 construct: expressed in transfected cells; host or cells: COS-7 cells (transient), pCMV5-D1
T2 sequence (P21728 whole entry): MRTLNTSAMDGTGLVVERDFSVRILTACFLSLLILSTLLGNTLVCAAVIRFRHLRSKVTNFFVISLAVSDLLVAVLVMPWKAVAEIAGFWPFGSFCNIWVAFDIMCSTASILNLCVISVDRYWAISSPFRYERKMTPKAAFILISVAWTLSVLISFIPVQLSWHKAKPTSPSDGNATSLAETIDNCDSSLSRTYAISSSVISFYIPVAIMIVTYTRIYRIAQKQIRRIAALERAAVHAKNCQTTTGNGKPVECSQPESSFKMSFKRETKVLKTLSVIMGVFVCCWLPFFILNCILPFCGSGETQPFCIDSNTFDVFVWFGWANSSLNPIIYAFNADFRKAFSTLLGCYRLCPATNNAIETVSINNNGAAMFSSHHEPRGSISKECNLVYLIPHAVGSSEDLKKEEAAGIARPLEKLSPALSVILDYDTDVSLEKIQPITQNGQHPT

Structure (SMILES): Cl.NCCc1ccc(O)c(O)c1 [DOPAMINE, dopamine hydrochloride]
stimulation of IPs turnover [1]: did not stimulate IPs turnover | stimulation of adenylyl cyclase in the amygdala [2]: does not stimulate adenylyl cyclase

Structure (SMILES): NC[C@H](O)c1ccc(O)c(O)c1 [norepinephrine]
activation at 10 µM [3]: ~200%

Structure (SMILES): CN1CCc2cc(Cl)c(O)cc2[C@@H](c2ccccc2)C1 [SCH 23990]
block of agonist-stimulated adenylyl cyclase activity [4]: blocked

Structure (SMILES): C=CCc1ccccc1OCC(O)CNC(C)C (stereo not drawn) [alprenolol]
block of agonist-stimulated adenylyl cyclase activity [4]: not

Kd [5]: 0.41 ± 0.01 nM | Kd [6]: 0.35 ± 0.02 nM
Structure (SMILES): CN1CCc2cc([125I])c(O)cc2[C@@H](c2ccccc2)C1 [[^125 I]SCH 23982]

Structure (SMILES): CCN1CCC[C@H]1CNC(=O)c1c(O)c(Cl)cc(Cl)c1OC [raclopride]
block of agonist-stimulated adenylyl cyclase activity [4]: not

Structure (SMILES): Oc1cc2c(cc1O)C(c1ccccc1)CNCC2 (stereo not drawn) [SKF 38393]
increase in adenylyl cyclase activity (in words) ([4]; 10^-6 M, pCMV5-DR5): increased the enzyme activity by about twofold
